Results: US9802937B2, “Substituted pyrazolo{4,3-D}pyrimidines as kinase inhibitors” (ORIGENIS GMBH, priority 2011, dated 2017)

What follows are compounds tested against T1, SYK kinase (Homo sapiens, UniProt P43405) (assay: SYK Assay (OMNIA KINASE ASSAY, SOX peptide fluorescence)). Settings: apparent Ki calculated from the IC50 using the Cheng-Prusoff equation; 1 mM ATP, 30° C.; read-out: SYK Activities: Ki.
T1 construct: purchased Invitrogen, Carlsbad
Assay type: biochemical
Procedure: In the assay OMNIA® KINASE ASSAY by Invitrogen Corporation (Carlsbad) the effect of invention of a compound on the phosphorylation is determined by measurement of fluorescence intensity of a chelation-enhanced fluorophore called SOX. Upon phosphorylation of the peptide by the kinase of interest, Mg2+ is chelated to form a bridge between the SOX moiety and the phosphate group that is transferred to the specific tyrosine on the peptide. The fluorescence intensity is directly proportional to the amount of peptide phosphorylation.
To the wells of an 384 well small volume plate (Greiner, Frickenhausen) are added (i) the compound under test in 5% DMSO/distilled water (2 μl), (ii) 16 μl of the master mix containing ATP, DTT, Kinase Reaction Buffer, Omina Peptide Substrate Tyr 7 resulting in a final concentration of 1 mM ATP, 0.2 mM DTT and 10 μM Peptide Substrate.
The Master Mix and the assay plate was incubated to reaction temperature before the measurement (30° C.). The reaction was started with addition of (iii) 2 μl 4 μg/ml SYK kinase (Invitrogen, Carlsbad). During measurement fluorescence intensitiy readings were collected using a TECAN M1000 at a wavelength of λex 360/λem 485 nm every 30 s for 30 minutes. The reaction velocity was plotted versus the inhibitor concentration to determine the […] using XLFit 5.0 (IDBS, Guildford) to fit to a sigmoidal dose response curve, and the apparent Ki values were calculated from the IC50 using the Cheng-Prusoff equation (Cheng, Y.; Prusoff, W. H. Biochem. Pharmacol. 22, 3099-3108, 1973).

Row | Ki | Structure (SMILES)
1 | 10 to 100 nM | N[C@@H]1CCCC[C@@H]1Nc1nc(-c2ccsc2)nc2cn[nH]c12 [Example #116, (1S,2R)—N-(5-Thiophen-3-yl-1H-pyrazolo[4,3-d]pyrimidin-7-yl)-cyclohexane-1,2-diamine]
2 | 100 to 1000 nM | COc1ccc(OC)c(-c2nc(Nc3ccc(OC)c(OC)c3)c3[nH]ncc3n2)c1 [Example #121, 5-(2,5-dimethoxyphenyl)-N-(3,4-dimethoxyphenyl)-1H-pyrazolo[4,3-d]pyrimidin-7-amine]
3 | 10 to 100 nM | CCN1CCN(c2ccc(Nc3nc(-c4cc(OC)ccc4OC)nc4cn[nH]c34)cc2)CC1 [Example #122, 5-(2,5-dimethoxyphenyl)-N-(4-(4-ethylpiperazin-1-yl)phenyl)-1H-pyrazolo[4,3-d]pyrimidin-7-amine]
4 | 10 to 100 nM | COc1ccc(OC)c(-c2nc(Nc3ccc(N4CCN(C5CC5)CC4)cc3)c3[nH]ncc3n2)c1 [Example #123, N-(4-(4-cyclopropylpiperazin-1-yl)phenyl)-5-(2,5-dimethoxyphenyl)-1H-pyrazolo[4,3-d]pyrimidin-7-amine]
5 | 10 to 100 nM | COc1ccc(Nc2nc(-c3cn4ccccc4n3)nc3cn[nH]c23)cc1OC [Example #124, N-(3,4-dimethoxyphenyl)-5-(imidazo[1,2-a]pyridin-2-yl)-1H-pyrazolo[4,3-d]pyrimidin-7-amine]
6 | 10 to 100 nM | CCN1CCN(c2ccc(Nc3nc(-c4cn5ccccc5n4)nc4cn[nH]c34)cc2)CC1 [Example #125, N-(4-(4-ethylpiperazin-1-yl)phenyl)-5-(imidazo[1,2-a]pyridin-2-yl)-1H-pyrazolo[4,3-d]pyrimidin-7-amine]
7 | < 10 nM | O=C(O)c1ccc(Nc2nc(-c3cn4ccccc4n3)nc3cn[nH]c23)cc1 [Example #128, 4-((5-(imidazo[1,2-a]pyridin-2-yl)-1H-pyrazolo[4,3-d]pyrimidin-7-yl)amino)benzoic-acid]
8 | 10 to 100 nM | COc1ccc(Nc2nc(-c3nc4ccccc4[nH]3)nc3cn[nH]c23)cc1OC [Example #129, 5-(1H-benzo[d]imidazol-2-yl)-N-(3,4-dimethoxyphenyl)-1H-pyrazolo[4,3-d]pyrimidin-7-amine]
9 | 100 to 1000 nM | COc1ccc(Nc2nc(-c3nc4ccccc4n3C)nc3cn[nH]c23)cc1OC [Example #130, N-(3,4-dimethoxyphenyl)-5-(1-methyl-1H-benzo[d]imidazol-2-yl)-1H-pyrazolo[4,3-d]pyrimidin-7-amine]
10 | 100 to 1000 nM | Cc1cccc(NC(=O)Nc2ccc(Nc3nc(-c4ccsc4)nc4cn[nH]c34)cc2)c1 [Example #133, 1-(4-((5-(thiophen-3-yl)-1H-pyrazolo[4,3-d]pyrimidin-7-yl)amino)phenyl)-3-(m-tolyl)urea]
11 | 10 to 100 nM | CN1CCN(c2ccc(Nc3nc(-c4ncc[nH]4)nc4cn[nH]c34)cc2)CC1 [Example #141, 5-(1H-imidazol-2-yl)-N-(4-(4-methylpiperazin-1-yl)phenyl)-1H-pyrazolo[4,3-d]pyrimidin-7-amine]
12 | 100 to 1000 nM | CC1(C)CNc2cc(Nc3nc(-c4ccsc4)nc4cn[nH]c34)ccc2S1 [Example #148, 2,2-dimethyl-N-(5-(thiophen-3-yl)-1H-pyrazolo[4,3-d]pyrimidin-7-yl)-3,4-dihydro-2H-benzo[b][1,4]thiazin-6-amine]
13 | < 10 nM | CN1CCN(c2ccc(Nc3nc(-c4cccc(-c5nn[nH]n5)c4)nc4cn[nH]c34)cc2)CC1 [Example #149, 5-(3-(2H-tetrazol-5-yl)phenyl)-N-(4-(4-methylpiperazin-1-yl)phenyl)-1H-pyrazolo[4,3-d]pyrimidin-7-amine]
14 | 100 to 1000 nM | CN(C)CCNc1nc(C(=O)c2ccccc2)nc2cn[nH]c12 [Example #150, (7-((2-(dimethylamino)ethyl)amino)-1H-pyrazolo[4,3-d]pyrimidin-5-yl)(phenyl)methanone]
15 | < 10 nM | CN1CCC(CNc2nc(C(=O)c3ccccc3)nc3cn[nH]c23)CC1 [Example #151, (7-(((1-methylpiperidin-4-yl)methyl)amino)-1H-pyrazolo[4,3-d]pyrimidin-5-yl)(phenyl)methanone]
16 | 10 to 100 nM | CN1CCN(c2ccc(Nc3nc(C(=O)c4ccccc4)nc4cn[nH]c34)cc2)CC1 [Example #152, (7-((4-(4-methylpiperazin-1-yl)phenyl)amino)-1H-pyrazolo[4,3-d]pyrimidin-5-yl)(phenyl)methanone]
17 | 100 to 1000 nM | COc1ccc(Nc2nc(C(=O)c3ccccc3)nc3cn[nH]c23)cc1OC [Example #153, (7-((3,4-dimethoxyphenyl)amino)-1H-pyrazolo[4,3-d]pyrimidin-5-yl)(phenyl)methanone]

Row | Ki | Structure (SMILES)
18 | 10 to 100 nM | O=C1CSc2ccc(Nc3nc(-c4cccs4)nc4cn[nH]c34)cc2N1 [Example #165, 6-((5-(thiophen-2-yl)-1H-pyrazolo[4,3-d]pyrimidin-7-yl)amino)-2H-benzo[b][1,4]thiazin-3(4H)-one]
19 | 10 to 100 nM | CC(C)(C#N)c1ccc(Nc2nc(-c3cccs3)nc3cn[nH]c23)cc1 [Example #167, 2-methyl-2-(4-((5-(thiophen-2-yl)-1H-pyrazolo[4,3-d]pyrimidin-7-yl)amino)phenyl)propanenitrile]
20 | 10 to 100 nM | COc1ccc(-c2nc(Nc3ccc(N4CCSCC4)cc3)c3[nH]ncc3n2)cc1 [Example #168, 5-(4-methoxyphenyl)-N-(4-thiomorpholinophenyl)-1H-pyrazolo[4,3-d]pyrimidin-7-amine]
21 | 100 to 1000 nM | CN1CCN(c2ccc(Nc3nc(-c4cccc(OCC(=O)O)c4)nc4cn[nH]c34)cc2)CC1 [Example #174, 2-(3-(7-((4-(4-methylpiperazin-1-yl)phenyl)amino)-1H-pyrazolo[4,3-d]pyrimidin-5-yl)phenoxy)acetic acid]
22 | 10 to 100 nM | CN1CCN(c2ccc(Nc3nc(-c4cccc(CC(=O)O)c4)nc4cn[nH]c34)cc2)CC1 [Example #176, 2-(3-(7-((4-(4-methylpiperazin-1-yl)phenyl)amino)-1H-pyrazolo[4,3-d]pyrimidin-5-yl)phenyl)acetic acid]
23 | 10 to 100 nM | CN1CCN(c2ccc(Nc3nc(-c4cccc(C(=O)O)n4)nc4cn[nH]c34)cc2)CC1 [Example #177, 6-(7-((4-(4-methylpiperazin-1-yl)phenyl)amino)-1H-pyrazolo[4,3-d]pyrimidin-5-yl)picolinic acid]
24 | 100 to 1000 nM | FS(F)(F)(F)(F)c1ccc(Nc2nc(-c3ccsc3)nc3cn[nH]c23)cc1 [Example #178, N-(4-(pentafluorosulfanyl)phenyl)-5-(thiophen-3-yl)-1H-pyrazolo[4,3-d]pyrimidin-7-amine]
25 | 10 to 100 nM | Cc1ccc(CNCc2cccc(-c3nc(Nc4ccc(N5CCN(C)CC5)cc4)c4[nH]ncc4n3)c2)cc1 [Example #180, 5-(3-(((4-methylbenzyl)amino)methyl)phenyl)-N-(4-(4-methylpiperazin-1-yl)phenyl)-1H-pyrazolo[4,3-d]pyrimidin-7-amine]
26 | 10 to 100 nM | CN(C)CCCOc1cccc(-c2nc(Nc3ccc(N4CCN(C)CC4)cc3)c3[nH]ncc3n2)c1 [Example #181, 5-(3-(3-(dimethylamino)propoxy)phenyl)-N-(4-(4-methylpiperazin-1-yl)phenyl)-1H-pyrazolo[4,3-d]pyrimidin-7-amine]
27 | < 10 nM | CC(=O)N1CCN(c2ccc(Nc3nc(-c4cccc(-c5nn[nH]n5)c4)nc4cn[nH]c34)cc2)CC1 [Example #192, 1-(4-(4-((5-(3-(2H-tetrazol-5-yl)phenyl)-1H-pyrazolo[4,3-d]pyrimidin-7-yl)amino)phenyl)piperazin-1-yl)ethan-1-one]
28 | 10 to 100 nM | COC(=O)c1cccc(-c2nc(Nc3ccc4c(c3)NC(=O)CC4)c3[nH]ncc3n2)c1 [Example #210, methyl 3-(7-((2-oxo-1,2,3,4-tetrahydroquinolin-7-yl)amino)-1H-pyrazolo[4,3-d]pyrimidin-5-yl)benzoate]
29 | 10 to 100 nM | COC(=O)c1cccc(-c2nc(Nc3ccc4c(c3)NC(=O)CO4)c3[nH]ncc3n2)c1 [Example #211, methyl 3-(7-((3-oxo-3,4-dihydro-2H-benzo[b][1,4]oxazin-6-yl)amino)-1H-pyrazolo[4,3-d]pyrimidin-5-yl)benzoate]
30 | 10 to 100 nM | O=C1COc2ccc(Nc3nc(-c4cccc(C(=O)O)c4)nc4cn[nH]c34)cc2N1 [Example #212, 3-(7-((3-oxo-3,4-dihydro-2H-benzo[b][1,4]oxazin-6-yl)amino)-1H-pyrazolo[4,3-d]pyrimidin-5-yl)benzoic acid]
31 | < 10 nM | COC(=O)c1ccc(-c2nc(Nc3ccc(N4CCN(C)CC4)cc3)c3[nH]ncc3n2)cc1 [Example #213, methyl 4-(7-((4-(4-methylpiperazin-1-yl)phenyl)amino)-1H-pyrazolo[4,3-d]pyrimidin-5-yl)benzoate]
32 | 100 to 1000 nM | COC(=O)c1ccc(-c2nc(Nc3ccc4c(c3)NC(=O)CC4)c3[nH]ncc3n2)cc1 [Example #215, methyl 4-(7-((2-oxo-1,2,3,4-tetrahydroquinolin-7-yl)amino)-1H-pyrazolo[4,3-d]pyrimidin-5-yl)benzoate]
33 | 10 to 100 nM | COC(=O)c1cccc(-c2nc(Nc3ccc4c(c3)NC(=O)CS4)c3[nH]ncc3n2)c1 [Example #216, methyl 3-(7-((3-oxo-3,4-dihydro-2H-benzo[b][1,4]thiazin-6-yl)amino)-1H-pyrazolo[4,3-d]pyrimidin-5-yl)benzoate]
